From patent US10363239B2, “Method for inhibiting growth of cancer cells” (Pain Therapeutics, Inc., priority 2013, dated 2019)

The compounds below were run on mu opiate receptor (MOR) (assay: MOR agonist activity using [35S]GTPγS binding assay in striatal membranes). Details: Series C-1; 0.1 μM compound, relative to DAMGO.
Assay type: biochemical
Method in brief: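 Striatal membranes (200 μg) were preincubated 5 min at 30 °C in HEPES pH 7.5 with 100 mM NaCl, 1 mM MgCl2 and 0.5 nM [35S]GTPγS, then 5 min more with 0.1–10 μM compound. Gαo was immunoprecipitated and bound radioactivity counted by scintillation.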

With `COc1ccc(S(=O)(=O)N2CCC3(CC2)OCCN3S(=O)(=O)c2ccc(C(C)=O)cc2)cc1` [Compound C0048] as the compound, how does the “% DAMGO (0.1 μM)” value read?
Its value is 144.2%.

Which “% DAMGO (0.1 μM)” value does the source give for `CC(=O)c1ccc(S(=O)(=O)N2CCC3(CC2)NC(=O)CN3S(=O)(=O)c2ccc(C(C)=O)cc2)cc1` [Compound C0064] here?
Its value is 124.2%.

Same assay, conditions: Series C-1; 0.1 μM compound; [35S]GTPγS binding to Gαo, striatal membranes

`COc1ccc(S(=O)(=O)N2CCC3(CC2)OCCN3S(=O)(=O)c2ccc(C(C)=O)cc2)cc1` [Compound C0048] was tested. Which “Concentration of FLNA-Binding Compound as Agonist 0.1 μM” value did it give?
The value was 209.1%.

With `CC(=O)c1ccc(S(=O)(=O)N2CCC3(CC2)NC(=O)CN3S(=O)(=O)c2ccc(C(C)=O)cc2)cc1` [Compound C0064] as the compound, how does the “Concentration of FLNA-Binding Compound as Agonist 0.1 μM” value read?
Its value is 213.8%.

Same assay, conditions: Series C-1; 1 μM compound + 1 μM β-FNA

With `COc1ccc(S(=O)(=O)N2CCC3(CC2)OCCN3S(=O)(=O)c2ccc(C(C)=O)cc2)cc1` [Compound C0048] as the compound, how does the “Concentration of FLNA-Binding Compound as Agonist 1 μM + BFNA” value read?
The value was 89.9%.

How did the “Concentration of FLNA-Binding Compound as Agonist 1 μM + BFNA” value turn out when `CC(=O)c1ccc(S(=O)(=O)N2CCC3(CC2)NC(=O)CN3S(=O)(=O)c2ccc(C(C)=O)cc2)cc1` [Compound C0064] was run?
Its value is 38.1%.

Same assay, conditions: Series C-1; 1 μM compound + β-FNA, relative to DAMGO + BFNA

`COc1ccc(S(=O)(=O)N2CCC3(CC2)OCCN3S(=O)(=O)c2ccc(C(C)=O)cc2)cc1` [Compound C0048] was tested. Which “% DAMGO + BFNA” value did it give?
The value was 204.3%.

Which “% DAMGO + BFNA” value does the source give for `CC(=O)c1ccc(S(=O)(=O)N2CCC3(CC2)NC(=O)CN3S(=O)(=O)c2ccc(C(C)=O)cc2)cc1` [Compound C0064] here?
The value was 110.4%.

Same assay, conditions: Series C-1; 1 μM compound, relative to DAMGO

For `COc1ccc(S(=O)(=O)N2CCC3(CC2)OCCN3S(=O)(=O)c2ccc(C(C)=O)cc2)cc1` [Compound C0048], which “% DAMGO (1 μM)” value is on record?
The value was 105.3%.

How did the “% DAMGO (1 μM)” value turn out when `CC(=O)c1ccc(S(=O)(=O)N2CCC3(CC2)NC(=O)CN3S(=O)(=O)c2ccc(C(C)=O)cc2)cc1` [Compound C0064] was run?
The value was 159.1%.

Same assay, conditions: Series C-1; 1 μM compound; [35S]GTPγS binding to Gαo, striatal membranes

How did the “Concentration of FLNA-Binding Compound as Agonist 1 μM” value turn out when `COc1ccc(S(=O)(=O)N2CCC3(CC2)OCCN3S(=O)(=O)c2ccc(C(C)=O)cc2)cc1` [Compound C0048] was run?
The value was 245.3%.

Which “Concentration of FLNA-Binding Compound as Agonist 1 μM” value does the source give for `CC(=O)c1ccc(S(=O)(=O)N2CCC3(CC2)NC(=O)CN3S(=O)(=O)c2ccc(C(C)=O)cc2)cc1` [Compound C0064] here?
The value was 349.6%.

Same assay, conditions: Series C-2; 0.1 μM compound, relative to DAMGO

Which “% DAMGO (0.1 μM)” value does the source give for `CC(=O)c1ccc(S(=O)(=O)N2CCC3(CC2)NC(=O)CO3)cc1` [Compound C0087M] here?
Its value is 138.9%.

With `COc1ccc(S(=O)(=O)N2CCOC23CCN(C(=O)OC(C)(C)C)CC3)cc1` [Compound C0043] as the compound, how does the “% DAMGO (0.1 μM)” value read?
The value was 103.8%.

Same assay, conditions: Series C-2; 0.1 μM compound; [35S]GTPγS binding to Gαo, striatal membranes

With `CC(=O)c1ccc(S(=O)(=O)N2CCC3(CC2)NC(=O)CO3)cc1` [Compound C0087M] as the compound, how does the “MOR agonist activity, percent [35S]GTPγS binding at the stated compound concentration” value (shortened to “MOR agonist activity, percent”) read?
Its value is 262.8%.

Which “MOR agonist activity, percent” value does the source give for `COc1ccc(S(=O)(=O)N2CCOC23CCN(C(=O)OC(C)(C)C)CC3)cc1` [Compound C0043] here?
The value was 175.4%.

Same assay, conditions: Series C-2; 1 μM compound + 1 μM β-FNA

`CC(=O)c1ccc(S(=O)(=O)N2CCC3(CC2)NC(=O)CO3)cc1` [Compound C0087M] was tested. Which “MOR agonist activity, percent” value did it give?
Its value is 142.5%.

Which “MOR agonist activity, percent” value does the source give for `COc1ccc(S(=O)(=O)N2CCOC23CCN(C(=O)OC(C)(C)C)CC3)cc1` [Compound C0043] here?
Its value is 83.3%.

Same assay, conditions: Series C-2; 1 μM compound + β-FNA, relative to DAMGO + BFNA

How did the “% DAMGO + BFNA” value turn out when `CC(=O)c1ccc(S(=O)(=O)N2CCC3(CC2)NC(=O)CO3)cc1` [Compound C0087M] was run?
The value was 293.8%.

Which “% DAMGO + BFNA” value does the source give for `COc1ccc(S(=O)(=O)N2CCOC23CCN(C(=O)OC(C)(C)C)CC3)cc1` [Compound C0043] here?
The value was 501.8%.

Same assay, conditions: Series C-2; 1 μM compound, relative to DAMGO

`CC(=O)c1ccc(S(=O)(=O)N2CCC3(CC2)NC(=O)CO3)cc1` [Compound C0087M] was tested. Which “% DAMGO (1 μM)” value did it give?
The value was 132.8%.

For `COc1ccc(S(=O)(=O)N2CCOC23CCN(C(=O)OC(C)(C)C)CC3)cc1` [Compound C0043], which “% DAMGO (1 μM)” value is on record?
Its value is 110.9%.

Same assay, conditions: Series C-2; 1 μM compound; [35S]GTPγS binding to Gαo, striatal membranes

`CC(=O)c1ccc(S(=O)(=O)N2CCC3(CC2)NC(=O)CO3)cc1` [Compound C0087M] was tested. Which “MOR agonist activity, percent” value did it give?
The value was 329.6%.

With `COc1ccc(S(=O)(=O)N2CCOC23CCN(C(=O)OC(C)(C)C)CC3)cc1` [Compound C0043] as the compound, how does the “MOR agonist activity, percent” value read?
The value was 242.6%.

The compounds below were run against FLNA pentapeptide of SEQ ID NO: 1 (Bn-VAKGL) (Homo sapiens, UniProt P21333) (assay: FITC-NLX-based FLNA screening assay (inhibition of FITC-naloxone binding to Bn-VAKGL on streptavidin plates)). Details: FLNA-binding compound 0.01 μM; 10 nM FITC-NLX; read-out: Percent Binding Inhibition.

`CC(=O)c1ccc(S(=O)(=O)N2CCC3(CC2)NC(=O)CO3)cc1` [Compound C0087M] was tested. Which inhibition at 0.01 µM did it give?
The inhibition at 0.01 µM was 51.6%.

For `COc1ccc(S(=O)(=O)N2CCOC23CCN(C(=O)OC(C)(C)C)CC3)cc1` [Compound C0043], which inhibition at 0.01 µM is on record?
The inhibition at 0.01 µM was 43.9%.

Same assay, conditions: FLNA-binding compound 0.1 μM; 10 nM FITC-NLX; read-out: Percent Binding Inhibition

For `CC(=O)c1ccc(S(=O)(=O)N2CCC3(CC2)NC(=O)CO3)cc1` [Compound C0087M], which inhibition at 0.1 µM is on record?
Its inhibition at 0.1 µM is 57.9%.

`COc1ccc(S(=O)(=O)N2CCOC23CCN(C(=O)OC(C)(C)C)CC3)cc1` [Compound C0043] was tested. Which inhibition at 0.1 µM did it give?
Its inhibition at 0.1 µM is 51.3%.

Same assay, conditions: FLNA-binding compound 1 μM; 10 nM FITC-NLX; read-out: Percent Binding Inhibition

Which inhibition at 1 µM does the source give for `CC(=O)c1ccc(S(=O)(=O)N2CCC3(CC2)NC(=O)CO3)cc1` [Compound C0087M] here?
The inhibition at 1 µM was 61.5%.

How did the inhibition at 1 µM turn out when `COc1ccc(S(=O)(=O)N2CCOC23CCN(C(=O)OC(C)(C)C)CC3)cc1` [Compound C0043] was run?
The inhibition at 1 µM was 58%.

Same assay, conditions: read-out: Percent Binding Inhibition, FLNA-binding compound 0.01 μM; 10 nM FITC-NLX

Which inhibition at 0.01 µM does the source give for `COc1ccc(S(=O)(=O)N2CCC3(CC2)OCCN3S(=O)(=O)c2ccc(C(C)=O)cc2)cc1` [Compound C0048] here?
The inhibition at 0.01 µM was 28.5%.

`CC(=O)c1ccc(S(=O)(=O)N2CCC3(CC2)NC(=O)CN3S(=O)(=O)c2ccc(C(C)=O)cc2)cc1` [Compound C0064] was tested. Which inhibition at 0.01 µM did it give?
Its inhibition at 0.01 µM is 37.3%.

Same assay, conditions: read-out: Percent Binding Inhibition, FLNA-binding compound 0.1 μM; 10 nM FITC-NLX

With `COc1ccc(S(=O)(=O)N2CCC3(CC2)OCCN3S(=O)(=O)c2ccc(C(C)=O)cc2)cc1` [Compound C0048] as the compound, how does the inhibition at 0.1 µM read?
Its inhibition at 0.1 µM is 38.9%.

For `CC(=O)c1ccc(S(=O)(=O)N2CCC3(CC2)NC(=O)CN3S(=O)(=O)c2ccc(C(C)=O)cc2)cc1` [Compound C0064], which inhibition at 0.1 µM is on record?
The inhibition at 0.1 µM was 44.4%.

Same assay, conditions: read-out: Percent Binding Inhibition, FLNA-binding compound 1 μM; 10 nM FITC-NLX

How did the inhibition at 1 µM turn out when `COc1ccc(S(=O)(=O)N2CCC3(CC2)OCCN3S(=O)(=O)c2ccc(C(C)=O)cc2)cc1` [Compound C0048] was run?
The inhibition at 1 µM was 45.9%.

`CC(=O)c1ccc(S(=O)(=O)N2CCC3(CC2)NC(=O)CN3S(=O)(=O)c2ccc(C(C)=O)cc2)cc1` [Compound C0064] was tested. Which inhibition at 1 µM did it give?
The inhibition at 1 µM was 49.2%.
